# Results from US4416898A, “Therapeutic uses of methionine” (Pharmuka Laboratoires, priority 1982, dated 1983).
# Columns and labels:
# [1] = tested on: Parkinsonian patients; details: 11 patients, 5 g/day, after 2 weeks, especially on akinesia, tremor and mood
# [2] = Water solubility and wettability of L-methionine; format: physicochemical; details: flakes
# [3] = target: dopaminergic receptors (striatum) (Mus musculus, UniProt P61168)
# Procedure: (§1) Since nude mice have no thymus gland, all of the lymphocytes of the spleen thereof are of the B type. Thus, these mice have the advantage of presenting pure B lumphocytes for observation. […] The [^3 H] spiperone bindings to striatal membranes (see Europ. J. Pharmacol. 50, 283, 1978) and intact B lymphocytes (see J. Pharm. Pharmacol. 33, 102, 1981) were performed in the same animal.
# [4] = tested on: dopaminergic receptors (B lymphocytes); details: [^3 H spiperone] = 1 nM; L-methionine 500 mg/kg I.P. twice daily over 5 days; n = 10; *P < 0.01; control 17 ± 3
# Procedure: as §1
# [5] = tested on: rats; details: IV; cited from earlier work
# [6] = tested on: Parkinsonism; details: with L-Dopa; J. Amer. Med. Assoc. 230, 305, 1974; cited from earlier work
# [7] = tested on: [^3 H] spiperone binding sites (lymphocytes from Parkinsonian patients); details: after treatment, before treatment 7±6
# dopaminergic receptors (striatum), sequence (P61168 whole entry): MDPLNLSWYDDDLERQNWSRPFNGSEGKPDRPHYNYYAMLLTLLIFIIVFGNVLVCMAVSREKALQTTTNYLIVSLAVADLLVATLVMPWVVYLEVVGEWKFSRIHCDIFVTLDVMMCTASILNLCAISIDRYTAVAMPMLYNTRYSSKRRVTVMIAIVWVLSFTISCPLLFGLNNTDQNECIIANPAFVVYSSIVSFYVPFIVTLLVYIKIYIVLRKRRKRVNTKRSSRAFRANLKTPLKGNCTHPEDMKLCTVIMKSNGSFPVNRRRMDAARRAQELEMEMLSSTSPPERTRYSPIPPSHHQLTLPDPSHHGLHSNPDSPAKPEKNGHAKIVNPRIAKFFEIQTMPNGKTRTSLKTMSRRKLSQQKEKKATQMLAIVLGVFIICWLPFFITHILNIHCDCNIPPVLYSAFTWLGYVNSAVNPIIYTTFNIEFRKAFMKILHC
structure (smiles),measurement,setting,value
CSCC[C@H](N)C(=O)O [L-methionine],improvement of Parkinsonism,[1],very good improvement
same,solubility in water,[2],slightly soluble in water
same,wettability,[2],poorly wettable
same,affinity constant [KD],"[3]; KD of [^3 H] spiperone (not of L-methionine), striatum of treated mice, chronic treatment, control 0.17 nM",0.20 nM
same,"[^3 H] spiperone binding, striatum","[3]; [^3 H spiperone] = 0.3 nM, L-methionine 500 mg/kg I.P. twice daily over 5 days, n = 10, **P < 0.001, control 40 ± 1",62 ± 3 fmoles/mg protein
same,number of binding sites [Bmax],"[3]; [^3 H] spiperone, striatum of treated mice, chronic treatment, control 302",491 fmoles/mg protein
same,change in affinity constant [KD],"[3]; [^3 H] spiperone, striatum, chronic treatment of L-methionine",no change in the affinity constant was detected
same,"[^3 H] spiperone binding, B lymphocytes",[4],37 ± 5 fmoles/10^6 cells
same,LD50,[5],4500 mg/kg
same,effect on L-Dopa effectiveness in Parkinsonism,[6],may reverse the effectiveness of L-Dopa
same,number of [^3 H] spiperone binding sites to lymphocytes,[7],98±19 fentomoles per 10^6 cells
